Assay results as given in ChEMBL document CHEMBL6182842, “Progress in the development of macrophage migration inhibitory factor small-molecule inhibitors” (Eur J Med Chem, 2025).

Columns and labels:
[1] = target: T1, D-dopachrome decarboxylase (Homo sapiens, UniProt P30046); assay: Binding affinity to human DDT extracted from Escherichia coli assessed as inhibition constant
[2] = target: T2, Macrophage migration inhibitory factor (Homo sapiens, UniProt P14174); assay: Inhibition of human recombinant MIF extracted from Escherichia coli BL21 (DE3)
T2 sequence (P14174 whole entry): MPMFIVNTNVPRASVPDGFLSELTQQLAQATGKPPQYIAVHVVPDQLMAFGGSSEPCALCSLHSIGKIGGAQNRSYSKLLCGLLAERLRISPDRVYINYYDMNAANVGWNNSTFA

[3] = target: T3, Macrophage migration inhibitory factor (Homo sapiens) (UniProt P14174); assay: Potency index, ratio of ISO-1 IC50 to test compound IC50 for inhibition of human recombinant MIF
T3 sequence (whole entry): T2 sequence (P14174 whole entry)

[4] = target: T2, Macrophage migration inhibitory factor; assay: Binding affinity to human recombinant MIF extracted from Escherichia coli BL21 (DE3) assessed as inhibition constant
[5] = target: T2, Macrophage migration inhibitory factor; assay: Inhibition of human recombinant MIF tautomerase activity
[6] = target: T2, Macrophage migration inhibitory factor; assay: Inhibition of human full length MIF extracted from Escherichia coli BL21 (DE3) by UV absorbance based analysis
[7] = target: T2, Macrophage migration inhibitory factor; assay: Inhibition of human recombinant MIF incubated for 30 mins by microplate reader assay
[8] = target: T1, D-dopachrome decarboxylase; assay: Inhibition of wild type human DDT tautomerase activity at 100 uM relative to control
[9] = target: T2, Macrophage migration inhibitory factor; assay: Inhibition of MIF (unknown origin)
[10] = target: T1, D-dopachrome decarboxylase; assay: Inhibition of human DDT extracted from Escherichia coli
[11] = target: T2, Macrophage migration inhibitory factor; assay: Binding affinity to wild type human MIF extracted from Escherichia coli BL 21 (DE3) assessed as inhibition constant
[12] = organism: Homo sapiens; assay: Selectivity ratio of Ki for wild type human DDT to Ki for wild type human MIF

T1 sequence (P30046 whole entry): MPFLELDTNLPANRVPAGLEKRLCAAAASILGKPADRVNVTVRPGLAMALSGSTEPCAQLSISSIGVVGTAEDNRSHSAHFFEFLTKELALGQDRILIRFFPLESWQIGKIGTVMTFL

O=C(O)c1cccc(-c2cc(C(=O)O)ncc2C(=O)O)c1
Ki [1]: 33 µM

O=c1c(O)c(-c2ccc(O)cc2)oc2cc(O)cc(O)c12 [KAEMPFEROL]
IC50 [2]: 189 µM | Ratio IC50 [3]: 17.2

C[C@@H]1O[C@@H](O[C@H]2[C@H](Oc3cc(O)c4c(c3)O[C@@H](c3ccc(O)cc3)CC4=O)O[C@H](CO)[C@@H](O)[C@@H]2O)[C@H](O)[C@H](O)[C@H]1O
IC50 [2]: 51.4 µM | Ki [4]: 43.5 µM | Ratio IC50 [3]: 13.3

O=C1/C(=C/c2ccccc2)CCCc2ccccc21
IC50 [5]: 84 µM

COc1ccc(C(=O)Nc2nnc(-c3ccco3)o2)c(OC)c1
IC50 [6]: 6.87 µM

O=C(CC1(O)C(=O)N(Cc2ccccc2Cl)c2ccccc21)C1Cc2ccccc2OC1=O (centres undefined)
IC50 [7]: 7.55 µM

O=C(O)c1cccnc1
inhibition [8]: > 100%

COC(=O)c1ccc(O)c2nc3c(C=O)c(O)cc(O)c3nc12 [LOMOFUNGIN]
IC50 [9]: 0.47 µM

O=C1/C(=C/c2cccnc2)CCc2ccccc21
IC50 [5]: 20.3 µM

O=C1/C(=C/c2ccc3cc[nH]c3c2)CCc2ccccc21
IC50 [5]: 58.8 µM

Nc1ccccc1NC(=O)c1ccc(NC(=O)Cc2ccc(N3Cc4ccc(O)cc4OC3=O)cc2)cc1
IC50 [9]: 0.81 µM

Cn1cccc1/C=C1\CCc2ccccc2C1=O
IC50 [5]: 23.8 µM

O=C(CSc1cc(-c2ccccc2)ncn1)c1ccc(O)cc1O
IC50 [7]: 9.49 µM

Cc1c(C(=O)c2ccc(Cl)cc2)oc2cc(N)ccc12
IC50 [7]: 14 µM

O=c1c(O)c(-c2ccc(O)cc2O)oc2cc(O)cc(O)c12 [MORIN]
IC50 [2]: 11 µM | Ki [4]: 8.95 µM | Ratio IC50 [3]: 6.3

CCC(CC)c1nnc(NC(=O)Oc2ccccc2)s1
IC50 [7]: 12 µM

Cc1cc(-c2ccccc2)ncn1
IC50 [10]: > 500 µM

O=C1/C(=C/c2ccco2)CCc2ccccc21
IC50 [5]: 57.7 µM

COc1cc(/C=C2\CCc3cc(O)ccc3C2=O)ccc1O
IC50 [5]: 4.31 µM

c1ccc(-c2ccncc2)cc1
inhibition [8]: > 100%

O=C1/C(=C/c2ccccc2)CCc2ccccc21
IC50 [5]: 127 µM

COc1ccccc1/C=C1\COc2ccccc2C1=O
IC50 [5]: 4.31 µM

CC(=O)NS(=O)(=O)c1ccc(NC(=O)CC(C)(C)C)cc1
IC50 [7]: 1.22 µM

O=C(O)c1ccccn1
inhibition [8]: > 75%

O=C(O)c1ccc(C(=O)O)nc1 [PYRIDINE-2,5-DICARBOXYLIC ACID]
Ki [11]: 17.2 µM | Ratio Ki [12]: 79 | inhibition [8]: < 25%

O=C1/C(=C/c2ccncc2)CCc2ccccc21
IC50 [5]: 21 µM

O=c1oc2ccc(F)cc2cc1-c1nc(-c2cccs2)no1
IC50 [7]: 7.57 µM

O=c1c(-c2c(O)cc(O)c3c(=O)cc(-c4ccc(O)cc4)oc23)c(-c2ccc(O)cc2)oc2cc(O)cc(O)c12
IC50 [2]: 13.3 µM | Ki [4]: 10.1 µM

Cc1ccc(/C=C2\CCc3ccccc3C2=O)cc1
IC50 [5]: 16.5 µM

O=C(O)c1ccc(C(=O)O)cc1
inhibition [8]: > 75%

Cc1cc(C(c2ccccn2)N2CCOCC2)c(NC(=O)c2ccco2)s1 (centres undefined)
IC50 [6]: 6.44 µM
